Each structure is given as a SMILES string.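 Briefly, cells in 96-well plates were exposed to five compound concentrations for 48 h, and endpoints were estimated by linear interpolation. At the GI50, growth is halved. TGI: concentration producing complete growth inhibition.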 A value given as a limit tells only on which side of the number the result lay.

Common to all, as to experiment: inhibition of tumour cell growth, NCI panel, 48 h
Experiment [1] relates to A549 NSCLC.
The subject of experiment [2] is HCT-116 colon.
For experiment [3], the system named is HS 578T breast.
Experiment [4] concerns HT29 colon.
In experiment [5] the test system is K-562 leukemia.
In experiment [6] the test system is MALME-3M melanoma.
Experiment [7] concerns OVCAR-3 ovarian.
For experiment [8], the system named is SK-MEL-28 melanoma.
Experiment [9] has as its system SK-OV-3 ovarian.
In experiment [10] the test system is U251 CNS.

`C[C@@H](NC(C#N)c1ccco1)c1ccccc1` (stereo not given in full): the TGI in [1], in experiment [2], in experiment [3], in [4], in [5] and in [6] was > 100 µM in each case. Also, the TGI in experiment [7], in experiment [8], in experiment [9] and in [10] was > 100 µM each time.
As for `O=[N+]([O-])c1ccccc1N=Nc1c(O)[nH]c2cccc(C(F)(F)F)c12`, the TGI in [1] is > 100 µM; in [2], > 100 µM; in experiment [3], > 100 µM; in experiment [4], > 100 µM; in experiment [5], > 100 µM; in experiment [7], 62.2 µM. For the same molecule, the TGI in experiment [8], in experiment [9] and in experiment [10] was > 100 µM in each case.
With `N#CC(C#N)=C/C=C(\Cl)c1ccc(Cl)cc1`, the GI50 in experiment [1] was 17.4 µM; in experiment [2], 1580 nM; in [3] it was 7.47 µM; in experiment [4], 0.98 µM; in experiment [5] it was 700 nM; in [6], 2160 nM. Further, the GI50 in experiment [7] was 6.5 µM; in experiment [8], 2380 nM; in [9], 9.96 µM; in [10] it was 6.9 µM. Further, the TGI in experiment [1] stood at 39.3 µM; in [2], 3.76 µM; in [3], 26.3 µM; in experiment [6] it was 7.63 µM; in [7], 17.4 µM; in [8] it was 45 µM. Also, the TGI in experiment [9] is > 52.7 µM; in experiment [10], > 43.7 µM.
In the case of `COc1cc2c(c3c1c(=O)c1ccccc1n3C)C=CC1(CCCC1)O2`, the TGI in [1] came out at 47.1 µM; in experiment [2], 28.6 µM; in experiment [3] it was 9.75 µM; in [4] it was 19.7 µM; in experiment [5] it was 21.7 µM; in experiment [6] it was 37.8 µM. Besides, the TGI in experiment [7] worked out at 38.1 µM; in experiment [8], 28 µM; in [9] it was 38.4 µM; in [10], 31.9 µM.
For `Cc1ccc2cnc(N)c(C#Cc3cc(C(=O)Nc4ccc(CN5CCN(C)CC5)c(C(F)(F)F)c4)cnc3C)c2c1`, the GI50 in [2] was 513 nM; in [3], 0.901 µM; in experiment [4], 0.139 µM; in experiment [5], 5 nM; in experiment [6], 146 nM; in experiment [7], 0.67 µM. Moreover, the GI50 in experiment [8] is 609 nM; in experiment [9] it was 1.61 µM; in experiment [10], 0.803 µM. In addition, the TGI in experiment [2] was found to be 1.39 µM; in [3], 2.76 µM; in experiment [4], 0.776 µM; in experiment [5] it was 1.26 µM; in experiment [6] it was 0.631 µM; in experiment [7], 2.66 µM. Besides, the TGI in [8] was determined as 1.36 µM; in [9] it was 4.19 µM; in experiment [10] it was 1.87 µM.
With `CCNCCNC(=O)c1ccc(I)cc1`, the TGI in [1], in experiment [3], in [4], in experiment [5], in [7] and in [8] was > 100 µM in each case. Further, the TGI in experiment [9] and in [10] was > 100 µM in each case.
For `CC(C)=CCN1c2ccccc2NC(=O)CC1C` (stereo not given), the TGI in [1], in experiment [3], in experiment [4], in experiment [5], in experiment [6] and in experiment [7] was > 100 µM each time. Also, the TGI in [8], in [9] and in experiment [10] was > 100 µM throughout.
Take `CC12CCC(CC(=O)/C1=C(/Br)I)C2(C)C` (stereo not given): the TGI worked out at 29.3 µM in [1]; 24.9 µM in [2]; 44 µM in experiment [3]; 25 µM in [4]; 26.4 µM in experiment [5]; 25.8 µM in experiment [6]. Besides, the TGI in experiment [7] stood at 26.9 µM; in experiment [8], 30.4 µM; in experiment [9], 45.4 µM.
For the molecule `Clc1ccc(-c2cn3ccnc3c(-c3ccc(Cl)cc3)n2)cc1`, the GI50 in experiment [1] was 8.31 µM; in experiment [2], 12200 nM; in [3] it was 26.3 µM; in experiment [4], 12.5 µM; in experiment [5], 2250 nM; in experiment [7], 16.8 µM. The values for the GI50 in experiment [8], in experiment [9] and in [10] were > 100000 nM, 82.8 µM and 12.9 µM, respectively. Further, the TGI in [1] is > 100 µM; in experiment [2] it was > 100 µM; in experiment [3], 92.4 µM; in experiment [4], > 100 µM; in experiment [5], > 100 µM; in experiment [7] it was > 100 µM. Also, the TGI was > 100 µM in experiment [8], > 100 µM in experiment [9] and 57.4 µM in experiment [10].
In the case of `CN(C)c1cc2ccccc2oc1=O`, the TGI in experiment [1], in experiment [2], in [3], in [4], in [5] and in [6] was > 100 µM throughout. The TGI in experiment [7], in [8] and in experiment [10] was > 100 µM in each case.
Consider `CN1CCN(C(=S)N(C)C(=O)c2ccco2)CC1`, for which the TGI in experiment [1], in experiment [3], in experiment [4], in experiment [5], in [6] and in [7] was > 100 µM throughout. In experiment [10], the TGI is > 100 µM.
As to `COC1=NCc2ccccc2-c2ccccc21`, the TGI in [1], in experiment [2], in experiment [4], in experiment [5], in experiment [6] and in experiment [7] was > 100 µM throughout. Further, the TGI in experiment [8], in [9] and in [10] was > 100 µM throughout.
With `COC(=O)/C(=N\NC(C)(C)C)C(C(=O)OC)C(=O)C(=O)Nc1cc(Cl)ccc1Cl` (stereo not given), the TGI in [1], in experiment [2], in experiment [4], in [5], in experiment [6] and in experiment [7] was > 100 µM throughout. Further, the TGI in experiment [8], in [9] and in [10] was > 100 µM each time.
Regarding `O=C(COc1ccccc1Cl)N1N=C(c2ccc(Cl)cc2)CC1(O)c1ccccc1` (stereo not given), the TGI in [1], in experiment [2], in [4], in experiment [5], in [6] and in experiment [7] was > 100 µM each time. The TGI in [8], in experiment [9] and in [10] was > 100 µM in each case.
With `COc1cccc(-c2nc3cc(NC(=O)c4ccc(Cl)c(C#N)c4)ccc3o2)c1`, the GI50 in experiment [1] was 1.88 µM; in experiment [2] it was 1800 nM; in experiment [3] it was 8.89 µM; in experiment [5] it was 2690 nM; in [9] it was 2.57 µM. Also, the TGI was 3.8 µM in experiment [1]; 3.47 µM in [2]; > 100 µM in experiment [3]; > 100 µM in experiment [5]; 5.56 µM in experiment [9].
With `O=c1oc2ccccc2c2c1Sc1ccccc1N2`, the TGI in experiment [2], in experiment [3], in [4], in experiment [5], in experiment [7] and in experiment [8] was > 100 µM in each case. Also, in experiment [10], the TGI was > 100 µM.
As to `O=S(=O)(/N=c1\scc(-c2ccccc2)n1-c1ccccc1)c1ccc(N2N=C3c4ccccc4CC3C2c2ccc(Cl)cc2)cc1` (stereo not given), the GI50 in experiment [1] was 31.4 µM; in [2], 47500 nM; in [3], 33 µM; in experiment [4], 44 µM; in experiment [5], 20000 nM; in [7], 44.3 µM. The GI50 is 67700 nM in experiment [8], 76.2 µM in experiment [9] and 26.1 µM in experiment [10]. The TGI in [1] was > 100 µM; in [2], > 100 µM; in [3] it was > 100 µM; in [4] it was > 100 µM; in [5], 55.5 µM; in experiment [7] it was > 100 µM. Also, the TGI in experiment [8] was > 100 µM; in experiment [9], > 100 µM; in experiment [10], 75.5 µM.
As for `O=C1Nc2ccccc2C1(O)C/C(=N/O)c1ccc2ccccc2c1` (stereo not given), the TGI in experiment [1], in experiment [2], in experiment [4], in [5], in experiment [6] and in experiment [7] was > 100 µM in each case. Also, the TGI in [8], in experiment [9] and in [10] was > 100 µM in each case.
As to `CCOC(=O)NC(=O)c1cn(CCN2CCN(C(=O)NCCCCCCNC(=O)N3CCN(CCn4cc(C(=O)NC(=O)OCC)c(=O)[nH]c4=O)CC3)CC2)c(=O)[nH]c1=O`, the TGI in experiment [1], in experiment [2], in experiment [4], in experiment [5], in experiment [6] and in [7] was > 100 µM in each case. In addition, the TGI in [8], in experiment [9] and in experiment [10] was > 100 µM throughout.

The values are drawn from PubChem BioAssay (NCI).
